According to US4731383A, “Aminoguanidine compounds, their compositions and pharmaceutical uses” (Biogal Gyogyszergyar, priority 1983, dated 1988):
Structures can show the parent of a compound that is named as a salt. Where two headings read alike, the source gives them in different places.

Assays:
[1] = tested on: mice treated with aconitin; experiment: animal or person; assay type: in vivo; conditions: Mus musculus, read-out: Delay in the appearance time of arrhythmia
Experimental: Arrhytmia was induced in male mice, weighing 20 to 25 g, by treating them continuously, at a rate of 0.2 ml/min with an infusion containing 5 μg/kg of aconitin. The test compound was administered to the animals either intraperitoneally (by injecting it into the abdominal cavity) 15 minutes before the start of the infusion, or orally 60 minutes before the onset of the infusion. The time of the appearance of arrhythmia was recorded, and the percentage of delay was calculated in relation to the data obtained in the controls, pretreated with 0.9 percent sodium chloride solution only [B. Vargaftig and J. L. Coignet: European J. of Pharmacol. 6, 49 to 55 (1969); N. K. Dadkar and B. K. Bhattachariya: Arch. Int. Pharmacodyn. 212, 297 to 301 (1974); D. U. Nwagwu, T. L. Holcslaw and S. J. Stohs: Arch. Int. Pharmacodyn. 229, 219 to 226 (1977)].

[2] = tested on: right ventricle of isolated rabbit heart; experiment: Electrophysiological tests in the isolated rabbit heart, right ventricle; conditions: n = 4
Experimental: (§1) Hearts of rabbits of both sexes, weighing 1 to 2 kg, were removed, the right and left auricles and a segment of the right ventricle were prepared and placed into a vessel filled with nutrient solution. Bipolar platinum electrodes (a stimulating electrode and a lead electrode) were placed on the organ strips, and the electric stimulus threshold and the speed of impulse conduction were measured. The effective refractory period was determined on the basis of the maximal driving frequency.

in vivo = conditions: mouse
[3] = tested on: left auricle of isolated rabbit heart; experiment: Electrophysiological tests in the isolated rabbit heart, left auricle; conditions: for Change in conduction time / Change in electric stimulus threshold / Change in max. driving frequency: n = 4
Experimental: as §1

Cc1ccccc1NNC(=N)N(C)C [Example 1, 1-(2-Methylphenyl)-4,4-dimethyl-aminoguanidine hydrochloride]
change in vivo at 25 mg/kg ([1]; ip): 164% | change in vivo at 50 mg/kg ([1]; ip): 174% | change in vivo at 50 mg/kg ([1]; po): 102% | change in vivo at 100 mg/kg ([1]; po): 197% | Change in conduction time ([2]; 0.25 mg/l): +0.2% | Change in electric stimulus threshold ([2]; 0.25 mg/l): 0% | Change in max. driving frequency ([2]; 0.25 mg/l): -0.88% | Change in conduction time ([2]; 0.5 mg/l): +3.31% | Change in electric stimulus threshold ([2]; 0.5 mg/l): -1.43% | Change in max. driving frequency ([2]; 0.5 mg/l): -0.38% | Change in conduction time ([2]; 1.0 mg/l): +14.84% | Change in electric stimulus threshold ([2]; 1.0 mg/l): +5.42% | Change in max. driving frequency ([2]; 1.0 mg/l): -1.82% | Change in conduction time ([2]; 2.0 mg/l): +36.75% | Change in electric stimulus threshold ([2]; 2.0 mg/l): +20.6% | Change in max. driving frequency ([2]; 2.0 mg/l): -10.33% | Change in conduction time ([2]; 4.0 mg/l): +52.45% | Change in electric stimulus threshold ([2]; 4.0 mg/l): +23.6% | Change in max. driving frequency ([2]; 4.0 mg/l): -17.43% | Change in conduction time ([2]; 8.0 mg/l): +77.82% | Change in electric stimulus threshold ([2]; 8.0 mg/l): +35.8% | Change in max. driving frequency ([2]; 8.0 mg/l): -36.8% | LD50 (in vivo; ip): 81 mg/kg | LD50 (in vivo; po): 203 mg/kg | Change in conduction time ([3]; 0.25 mg/l): +0.54% | Change in electric stimulus threshold ([3]; 0.25 mg/l): 0% | Change in max. driving frequency ([3]; 0.25 mg/l): -0.08% | Change in conduction time ([3]; 0.5 mg/l): +8.66% | Change in electric stimulus threshold ([3]; 0.5 mg/l): -1.82% | Change in max. driving frequency ([3]; 0.5 mg/l): -0.98% | Change in conduction time ([3]; 1.0 mg/l): +12.55% | Change in electric stimulus threshold ([3]; 1.0 mg/l): -11.8% | Change in max. driving frequency ([3]; 1.0 mg/l): -9.21% | Change in conduction time ([3]; 2.0 mg/l): +28.42% | Change in electric stimulus threshold ([3]; 2.0 mg/l): +30.84% | Change in max. driving frequency ([3]; 2.0 mg/l): -17.09% | Change in conduction time ([3]; 4.0 mg/l): +47.87% | Change in electric stimulus threshold ([3]; 4.0 mg/l): +43.4% | Change in max. driving frequency ([3]; 4.0 mg/l): -28.82% | Change in conduction time ([3]; 8.0 mg/l): +114.03% | Change in electric stimulus threshold ([3]; 8.0 mg/l): +83.9% | Change in max. driving frequency ([3]; 8.0 mg/l): -59.1% | inhibition at 0.25 µg/mL ([3]; Oryctolagus cuniculus, 0.25 mg/l, n = 4, read-out: Contractility): 2.61% | inhibition at 0.5 µg/mL ([3]; Oryctolagus cuniculus, 0.5 mg/l, n = 4, read-out: Contractility): 7.57% | inhibition at 1 µg/mL ([3]; Oryctolagus cuniculus, 1.0 mg/l, n = 4, read-out: Contractility): 15.5% | inhibition at 2 µg/mL ([3]; Oryctolagus cuniculus, 2.0 mg/l, n = 4, read-out: Contractility): 18.1% | inhibition at 4 µg/mL ([3]; Oryctolagus cuniculus, 4.0 mg/l, n = 4, read-out: Contractility): 27.1% | inhibition at 8 µg/mL ([3]; Oryctolagus cuniculus, 8.0 mg/l, n = 4, read-out: Contractility): 37.9%
